The source of these data is US7781580B2, “Stilbene derivatives as new cancer therapeutic agents” (Virginia Commonwealth University, priority 2007, dated 2010).

A word on the IC50: it is the midpoint of a concentration-inhibition curve.

In data set [1] the test system is SNU423 hepatocellular carcinoma cells. The experiment in a line: Alamar Blue cell growth inhibition, SNU423. Format: cell-based. As for the experimental part:
Cell growth was measured by Alamar Blue™ staining and the OD absorbance at 570 and 600 nm was determined by a microplate reader. The percentage of cell growth inhibition was calculated and compared with the control cells that were treated with 0.1% DMSO, the vehicle for the stilbene compounds.
(§1) Various cancer cell lines were grown in 96-well plates for drug sensitivity assays. Once cells achieved 50% confluence, the incubation media was changed to the same cell growth media with different concentrations of the tested compounds or vehicle alone. Cells were then incubated for 48 hours before the cell growth inhibition study. To determine the degree of cell growth inhibition, 1/10 volume of Alamar Blue™ solution was added to each well and optical density (OD) at 570 and 600 nm was determined. The percentage of growth inhibition was calculated according to the manufacturer's formula as follows: The percentage of growth is [(117216×A570)−(80586×A600)]/[(117216×A^o570)−(80586×A^o600)]×100. In this formula, A570 is the absorbance of the treated samples at 570 nm; A600 is the absorbance of the treated samples at 600 nm; A^o570 is the absorbance of the […] samples at 570 nm; and A^o600 is the absorbance of the untreated samples at 600 nm. The two constants, 117216 and 80586, are the extinction coefficients of Alamar Blue™ at 570 and 600 nm respectively. Each concentration was repeated in triplicate to minimize the error.
(§2) We first tested the cytotoxic effect of various stilbene derivatives for their in vitro efficacy of suppressing tumor cell proliferation. Cells were first plated in 96-well plates at 50% confluence and treated with 0, 0.01, 0.03, 0.1, 0.3, 1.0, 3.0, 10 μM concentrations of stilbene derivatives for 48 hours in triplicate. Alamar Blue™ reagent was added into each well at 1/10 volume and incubated for 2 hours before quantification of the absorbance at 570 and 600 nm.
(Resazurin is reduced to fluorescent resorufin, in cell work by metabolically active cells.)

For data set [2], the system named is UCI101 ovarian cancer cells. The data set is described as follows: Alamar Blue cell growth inhibition, UCI101. The conditions noted are these: UCI101, 48 hours. It counts as cell-based. As for the experimental part: Cell growth was measured by AlamarBlue™ staining and the percentage of cell growth inhibition was calculated and compared with the control cells that were treated with 0.1% DMSO, the vehicles for the stilbene compounds.
Cells were treated with the tested drug for 2 days before analysis of cell growth by Alamar Blue™ staining. Cells treated with 0.1% DMSO were used as control and set as 100%.
(a) In vitro sensitivity of UCI101 cells toward three potential stilbene prodrugs, 5a-c, was tested in 96-well plates using Alamar Blue™ assays to determine cell growth inhibition. […] (b) 5b induces cell cycle change and apoptosis in UCI101 cells. Cells were incubated with 5b at 1, 3, 10 μM for 16 hours followed by PI staining and flow cytometry analysis. A subG0/1 population, representing apoptotic cells, appeared along with a decrease of the G1/G2 ratio after cells were treated with 3 μM 5b. Higher concentration (10 μM) of 5b completely killed cells, as was the case with stilbene 4a at […]. (c) Cells treated with stilbene 4a and 5b were stained with phospho-histone 3B, a mitotic marker. The positive signals of phospho-histone 3B were shown in green and nuclei were stained with DAPI in blue. […] (d) In vivo efficacy of 5b compared with stilbene 4a. Nude mice were injected with UCI101 ovarian cancer cells and treated with 7 doses of 5b,c or stilbene 4a every 2-3 days. Tumor volume was calculated and plotted against days.
as §1, §2

Another data set concerns MDA-MB231 cells. The data set is described as follows: immunofluorescent staining of tubulin, MDA-MB231. Format: cell-based. Particulars: CA4 10 nM, stilbene 4a 100 nM, vincristine 100 nM, 5b 3 μM; 16 hours. The text has this: Nuclei were stained with 4′,6-diamidino-2-phenylindole (DAPI). Control cells show the reticular pattern of the microtubule network.
For data set [3], the system named is SKOV3 ovarian cancer cells. The experiment in a line: Alamar Blue cell growth inhibition, SKOV3. It counts as cell-based. Particulars: for effective / active concentration: SKOV3, 48 hours. As for the experimental part: Cells were incubated with various concentrations of the compounds for 48 hours. Cell growth was measured by Alamar Blue™ staining and the percentage of cell growth inhibition was calculated and compared with the control cells that were treated with 0.1% DMSO, the vehicle for the stilbene compounds.
as §1

Data set [4] has as its system UCI101 ovarian cancer cells. The data set is described as follows: Western blot of signal transduction events, UCI101. Format: cell-based. Particulars: for phosphorylation of Chk1: 36 hours. As for the experimental part: All these agents are microtubule interfering agents but with different binding sites. Cells were harvested at 0, 4, 8, 16 and 36 hours after drug treatment for Western blot analysis. […] Phosphorylation of both Cdc25C and Cdc2 disappeared after 16 hours and slightly recovered at 36 hours. […] Akt phosphorylation decreased after 16 hours of treatment.
In order to understand the mechanism of resistance of stilbenes, various signal transduction pathways were investigated to examine how cells respond to stilbene treatment. UCI101 ovarian cancer cells were treated with stilbenes 4a, 4c or paclitaxel (Taxol) at 0.1 μM for 0, 4, 8, 16 and 36 hours. Cells were harvested for Western blotting. Changes in the kinases involved in cell cycle progression from G2-M transition were first determined in Cdc2, Cdc25c, and mitotic spindle check point regulator BubR1. […] 36 hours after treatment, rephosphorylation of Cdc2 was observed. […] The higher molecular weight isomer of Cdc25c, the mitotic form, increased at 16 and 36 hours. […] A similar study was then performed with other microtubule interfering agents such as combretastatin A4, 13a and vincristine for comparison. A similar trend was observed among these three microtubule interfering agents (FIG. 18).
In general terms: A western blot detects proteins with antibodies after separation by electrophoresis.

A further data set relates to HL60 cells. Particulars: cited from earlier work; for IC50: read-out: IC50, induction of HL60 apoptosis.
Data set [5] is described as follows: acute toxicity in dose escalating study. Format: in vivo, mice. As for the experimental part: Acute toxicity in dose escalating study: We investigated the efficacy of stilbene 4a in vivo using mouse xenograft model. First we determined the maximal tolerated dose of stilbene 4a since it has a higher potency in vitro. […] Subsequently mice fully recovered 30 min after injection.

The test system of data set [6] is MiaPaCa2 pancreatic cancer cells. The experiment in a line: Alamar Blue cell growth inhibition, MiaPaCa2. The conditions noted are these: Homo sapiens, MIA PaCa-2; MiaPaCa2. It counts as cell-based. Here is the method:
as §1, §2

The subject of data set [7] is MDA-MB231 breast cancer cells. The experiment in a line: Alamar Blue cell growth inhibition, MDA-MB231. Format: cell-based. Particulars: Homo sapiens, MDA-MB-231; MDA-MB231. As for the experimental part:
Cell growth was measured by Alamar Blue™ staining and the percentage of cell growth inhibition was calculated and compared with control cells that were treated with 0.1% DMSO, the vehicles for the stilbene compounds.
as §1, §2

For the next data set, the system named is Tubulin (>99% pure). The experiment in a line: tubulin polymerization assay (OD 340 nm). It counts as biochemical. The conditions noted are these: OD340 nm; nocodazole and paclitaxel 10 μM. Here is the method:
FIG. 3a-d. Stilbenes inhibit tubulin polymerization. (a) Effect of stilbene 4a. Pure tubulin was incubated with various concentrations of stilbene 4a, 10 μM nocodazole, and 10 μM paclitaxel in the polymerization buffer. The OD at 340 nm was monitored every minute by SpectraMAX 250 and plotted against time. (b) Effect of stilbene 4c. (c) Comparison of same concentrations of stilbenes 4a, 4a trans, 4c and 4c trans with control. […] Tubulin was incubated with [^3H]-colchicine and various concentrations of different stilbenes for 20 min. Tubulin was then separated from the unbound [^3H]-colchicine by Microcon-30 and washed three times with PBS. The radioactivity of the tubulin was counted. […] All experiments were done in triplicates.
The tubulin polymerization assay kit was purchased from Cytoskeleton (Denver, Colo.). Tubulin (>99% pure) was mixed with general tubulin buffer (GTB, 80 mM PIPES pH 6.9, 2 mM MgCl2, 0.5 mM EGTA, and 1 mM GTP) in a 96-well plate at 37° C. Absorbance at 340 nm was measured every 1 min for 60 min by SpectraMAX 250 (Molecular Devices, Sunnyville, Calif.). Analysis of the results was performed by SoftMAX Pro version 1.2.0 from the same company.

The conditions of data set [8]: in vivo; cited from earlier work.

Structures can show the parent of a compound that is named as a salt. Where two headings read alike, the source gives them in different places. Where only a bound is given, the exact number is not on record here.

For the compound `CC[C@]1(O)C[C@H]2CN(CCc3c([nH]c4ccccc34)[C@@](C(=O)OC)(c3cc4c(cc3OC)N(C=O)[C@H]3[C@@](O)(C(=O)OC)[C@H](OC(C)=O)[C@]5(CC)C=CCN6CC[C@]43[C@@H]65)C2)C1` [vincristine, reference compound], in data set [1] (SNU423), the “relative potency” value is “equivalent”. Besides, the “relative potency / activity” value in [2] is recorded as “about equal in their potency”. For the same compound, in the data set on MDA-MB231 cells, the microtubule pattern result is on record as “fine granular pattern without formation of microtubules”. Further, the concentration for half-maximal inhibition (IC50) in data set [3] (Homo sapiens, SK-OV-3, SKOV, read-out: IC50) is 0.05 to 0.1 µM. Moreover, the “effective / active concentration” value in [3] was found to be 0.1 µM. For the same compound, the “phosphorylation of Stat3” value in [4] (0.1 μM) is reported as “more pronounced”. For the same compound, the “phosphorylation of Chk1” value in data set [4] was “do not cause more phosphorylation of Chk1”.
As for `COc1cc(/C=C\c2ccc(OC)c(O)c2)cc(OC)c1` [stilbene 6c, cis-3,4′,5-trimethoxy-3′-hydroxystilbene], the “cytotoxicity under overexpression of MDR gene” value in the data set with HL60 cells is listed as “not affected by overexpression of multiple-drug resistant (MDR) gene”. In addition, in the data set with HL60 cells (Roberti et al.), the IC50 was 0.03 µM.
Take `COc1cc(/C=C\c2ccc(OC)c(N)c2)cc(OC)c1` [stilbene 5c, cis-3,4′,5-trimethoxy-3′-aminostilbene]: the “acute toxicity at 6 or 33 mg/kg” value in [5] (6 or 33 mg/kg intravenously) is on record as “did not cause any acute toxicity”. Also, in data set [5] (72 and 97 mg/kg intravenously), the “acute toxicity at 72 and 97 mg/kg” value was “transient weakness as shown by dragging feet and sluggish movement”; the “time to full recovery after injection” value turned out to be 30 min. In addition, in the data set with HL60 cells (Roberti et al.), the “cytotoxicity under overexpression of MDR gene” value was “not affected by overexpression of multiple-drug resistant (MDR) gene” and the IC50 is 0.03 µM.
As to `COc1cc(/C=C\c2ccc(OC)c(N)c2)cc(OCCO)c1` [10a, (Z)-2-{3-[2-(3-Amino-4-methoxy-phenyl)-vinyl]-5-methoxy-phenoxy}-ethanol, hydrochloride], the half-maximal inhibitory concentration (IC50) was ≤ 0.3 µM in data set [1] (Homo sapiens, SNU-423, 48 h, read-out: IC50 (50% growth inhibition), SNU423, 48 hours); 0.3 µM in data set [1] (read-out: IC50 (50% growth inhibition), SNU423, 48 hours, hydrochloride); 0.3 µM in data set [6]; 0.08 µM in [7]. The “activity” value in data set [3] (SKOV3) is recorded as “also effective”. Moreover, the “effective / active concentration” value in data set [3] worked out at 0.1 µM.
Regarding `CC(=O)O[C@H]1C(=O)[C@@]2(C)[C@H]([C@H](OC(=O)c3ccccc3)[C@]3(O)C[C@H](OC(=O)[C@H](O)[C@@H](NC(=O)c4ccccc4)c4ccccc4)C(C)=C1C3(C)C)[C@]1(OC(C)=O)CO[C@@H]1C[C@@H]2O` [paclitaxel, reference compound], the “effect on tubulin polymerization” value in the data set with Tubulin (>99% pure) was “enhanced”. Further, the “phosphorylation of Cdc2 at Tyr15” value in [4] (0.1 μM, 16 hours) is given as “decreased dramatically”. In addition, the “phosphorylation of Chk1” value in data set [4] is “do not cause more phosphorylation of Chk1”.
Consider `COc1cc2c(c(OC)c1OC)-c1ccc(OP(=O)(O)O)cc1[C@@H](NC(C)=O)CC2` [ZD6126], for which the “toxicity in phase I clinical trials” value in data set [8] is “cardiac toxicity (such as decreasing left ventricular ejection fraction) and dose limiting toxicity were observed”.
